Results reported in publication PMC9234961 (Journal of Medicinal Chemistry, 2022).
≈ marks a conversion by molar mass, not a printed value. Where “and” joins values, the source holds several entries; their conditions need not be identical. Identical values can stand only once. Like-named read-outs stand apart in the source and are kept apart here. Marks after values point to notes of the source that are not given here.

Legend:
in vitro [1] = type: in vitro ADME; conditions: pH 7.4, 10 µM, 16 h at 30 °C
[2] = target: endogenous BCL6 in OCI-Ly1 cells (Homo sapiens, UniProt P41182); test: cell-based
[3] = Microsomal clearance assay (MLM); type: in vitro ADME; conditions: mouse liver microsomes, 1 μM compound
In short: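 Compound (1 µM) was incubated at 37 °C with female CD1 mouse, female Sprague–Dawley rat or mixed-gender human liver microsomes (0.5 mg/mL protein) in 10 mmol/L phosphate, pH 7.4, with 3 mmol/L MgCl2. After 10 min preincubation, 1 mmol/L NADPH started the reaction. Samples taken up to 30 min were methanol-quenched and analysed by LC-MS.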

[4] = logD7.4 assay (Chrom log D method); type: physicochemical; conditions: reversed-phase HPLC on Phenomenex Luna C8 column, pH 7.4, read-out: Measured logD7.4
In short: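 Samples at 1mM in 10% DMSO/90% Trizma buffer (100mM Trizma in 75/25 methanol/water) injected onto a C8 column at 30°C under gradient elution at 2 mL/min. Retention calibrated against calibration and validation standards.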

[5] = Microsomal clearance assay (HLM); type: in vitro ADME; conditions: both sexes, pH 7.4; human liver microsomes, 1 μM compound
Description: (§1) 6. Supplementary experimental: in vitro DMPK assays
(§2) 6.1 Microsomal clearance assay
(§3) Microsomal clearance was determined in female CD1 mice, female Sprague–Dawley rats, and mixed gender human liver microsomes obtained from BioIVT (Peterborough, U.K.) following incubation of 1 μM compound at 37 °C in 0.5 mg/mL microsomal protein, 3 mmol/L MgCl2, 1 mmol/L NADPH, 2.5 mmol/L and 10 mmol/L phosphate buffer (pH 7.4) (all purchased from Sigma-Aldrich, Gillingham, U.K). Reactions were started by addition of the cofactors following 10 min preincubation of microsomes with test compound and were terminated at −1, 0, 5, 10, 15, and 30 min with three volumes of ice-cold methanol containing internal standard. Samples were centrifuged at 2800g for 30 min at 4 °C and the supernatants analyzed.
(§4) Control incubations were prepared as above with omission of cofactors. Compound measurements were […]
(§5) separation with a 3 min gradient of 0.1% formic acid in methanol on a Kinetex C18, 50 × 2.1 mm 2.6 μm UPLC column (Phenomenex, Macclesfield, UK). […]

NMR solubility assay = type: physicochemical; conditions: kinetic solubility by NMR in HEPES buffer at pH 8, 4% DMSO; read-out: Aq. Sol.
[6] = In vivo pharmacokinetic study in Balb/C mice; design: species or system mouse; conditions: female Balb/C mice
[7] = Microsomal clearance assay (RLM); type: in vitro ADME; conditions: female, Sprague-Dawley, pH 7.4; rat liver microsomes, 1 μM compound
Description: as §1, §2, §3, §4, §5

in vitro [8] = type: in vitro ADME; conditions: BALB/c; mouse plasma, rapid equilibrium dialysis; read-out: mouse (BALB\c) PPB (converted)
in vitro [9] = type: in vitro ADME; conditions: fraction unbound in OCI-Ly1 DC50 assay medium
HPLC solubility assay = type: physicochemical; conditions: solubility by HPLC in PBS buffer and 1% DMSO at pH 7.4
Description: 11 4.2 HPLC solubility assay
10 µL of 10 mM DMSO stock solution was pipetted into a micro centrifuge tube (1.5 mL, Sarstedt part-no.
seconds on vortex mixer (Grant-bio vortex mixer) to create 100 µM solution with 1% DMSO. Following shaking of the suspension on a Bohdan Shaker at 500 rpm for 2 hours at room temperature (20 °C), it was
The concentration of the solubilized compound in solubility sample is measured by HPLC with UV detection using an external standard which was prepared by pipetting 10 µL of the same batch of
The detail of the HPLC method is as following: chromatographic separation at 30°C is carried out over a 5 minute gradient elution method from 90:10 to 10:90 water:methanol (both modified with 0.1% formic acid) at a flow rate of 1.5 mL/min. Calibration curve is prepared by injecting 0.5, 2.5, and 5 µL of compound

human BCL6 BTB domain [10] = target: T1, human BCL6 BTB domain (Homo sapiens, UniProt P41182)
human BCL6 BTB domain [11] = target: T1, human BCL6 BTB domain; test: biochemical; conditions: BCL6 TR-FRET IC50 individual replicates, single replicate values
[12] = OCI-Ly1, read-out: MSD degrader assay [OCI-Ly1] Dmax, mean maximal degradation of BCL6, OCI-Ly1 cells, 2 h

For `C[C@@H]1CN(c2ncc(Cl)c(Nc3ccc4c(c3)n(CCC(C)(C)O)c(=O)n4C)n2)C[C@H](C)C1(F)F` [2 CCT369260, 5-((5-Chloro-2-((3R,5S)-4,4-difluoro-3,5-dimethylpiperidin-1-yl)pyrimidin-4-yl)amino)-3-(3-hydroxy-3-methylbutyl)-1-methyl-1,3-dihydro-2H-benzo[d]imidazol-2-one], the “PAMPA (pH 7.4)” value (in vitro [1]) was 33 ×10–6 cm s–1, the Dmax [2, 12] was 99.3% and the “CLint (MLM)” value [3] was 78 μL/min/mg protein. The chromatographic logD [4] was 4.3, the microsomal CLint at 0.5 h, 1 µM [5] was 11 µL/min/mg and the solubility kinetic at 20 h (NMR solubility assay) was 11 µM (≈ 5.6 µg/mL). The “CL as % Qh” value [6] was 22 % Qh, the CL ([6]; 1 mg/kg i.v.) was 1.19 L/h/kg and the Vd ([6]; mouse, in vivo, 1 mg/kg, read-out: Vss) was 2.1 L/kg. For the same molecule, the half-life at 6 h ([6]; mouse, in vivo, po, 5 mg/kg) was 1.4 h, the Cmax ([6]; mouse, in vivo, 1 mg/kg i.v. and 5 mg/kg p.o.) was 1580 nM and the F ([6]; oral bioavailability, 5 mg/kg p.o. vs 1 mg/kg i.v.) was 54%. The CLu ([6]; unbound clearance) was 2803.9 L/h/kg, the microsomal CLint at 0.5 h, 1 µM [7] was 10 µL/min/mg and the fraction unbound (in vitro [8]) was 0.0004. For the same molecule, the “fu,media” value (in vitro [9]) was 0.022.
For `Cn1c(=O)c2c(c3cc(Nc4nc(N5CCC(F)(F)[C@@H](CO)C5)ncc4Cl)ccc31)N[C@@H](C1CC1)C(F)(F)CO2` [9a, (S)-10-((5-Chloro-2-((R)-4,4-difluoro-3-(hydroxymethyl)piperidin-1-yl)pyrimidin-4-yl)amino)-2-cyclopropyl-3,3-difluoro-7-methyl-1,2,3,4-tetrahydro-[1,4]oxazepino[2,3-c]quinolin-6(7H)-one], the “PAMPA (pH 7.4)” value (in vitro [1]) was 21 ×10–6 cm s–1, the Dmax ([2]; OCI-Ly1, read-out: MSD degrader assay [OCI-LY1] Dmax individual replicates, single replicate values) was 76.7% and the Dmax [2, 12] was 82.8%. For the same molecule, the “degradation of BCL6 (in words)” value ([2]; OCI-Ly1 MSD assay) was “fully degraded the protein”, the “MSD degrader assay [OCI-Ly1] Dmax” value ([2]; mean maximal degradation of BCL6, OCI-Ly1 cells, 2 h) was 83% and the “MSD degrader assay [OCI-LY1] pDC50 mean” value ([2]; mean of replicates) was 8.5622. For the same molecule, the DC50 ([2]; read-out: Calculated free DC50 [OCI-Ly1], DC50 corrected with fu,media) was 0.24 nM, the DC50 ([2]; read-out: MSD degrader assay [OCI-LY1] DC50 individual replicates, single replicate values) was 2.5 nM and 3 nM and the DC50 ([2]; read-out: MSD degrader assay [OCI-Ly1] DC50, geometric mean, OCI-Ly1 cells, 2 h incubation) was 2.7 nM. The “MSD degrader assay [OCI-LY1] Dmax individual replicates” value ([2]; single replicate values) was 89.0%, the “Aq. Sol.” value (HPLC solubility assay) was 13^f μM and 13 ^e μM and the microsomal CLint at 0.5 h, 1 µM ([3]; female, CD1, pH 7.4) was 142 µL/min/mg. For the same molecule, the chromatographic logD [4] was 3.2, the microsomal CLint at 0.5 h, 1 µM [5] was 14 µL/min/mg and the “BCL6 TR-FRET pIC50 mean” value (human BCL6 BTB domain [10]; mean of replicates) was 8.8118. The IC50 (human BCL6 BTB domain [10]; read-out: BCL6 TR-FRET IC50, geometric mean, BCOR-AF633 peptide, 2 h incubation) was 1.5 nM, the IC50 (human BCL6 BTB domain [11]) was 1.3 nM and 2.2 nM (2×) and 0.9 nM and 4 nM and the microsomal CLint at 0.5 h, 1 µM [7] was 9 µL/min/mg. It also gave a fraction unbound (in vitro [9]; bovine, read-out: fu,media) of 0.088.
